The target in this data set is Albumin (Homo sapiens, UniProt P02768). Nature of the data set: Compound was tested for its binding ability to site II of Human serum albumin (HSA) expressed as binding constant.
Sequence of Albumin (P02768 whole entry): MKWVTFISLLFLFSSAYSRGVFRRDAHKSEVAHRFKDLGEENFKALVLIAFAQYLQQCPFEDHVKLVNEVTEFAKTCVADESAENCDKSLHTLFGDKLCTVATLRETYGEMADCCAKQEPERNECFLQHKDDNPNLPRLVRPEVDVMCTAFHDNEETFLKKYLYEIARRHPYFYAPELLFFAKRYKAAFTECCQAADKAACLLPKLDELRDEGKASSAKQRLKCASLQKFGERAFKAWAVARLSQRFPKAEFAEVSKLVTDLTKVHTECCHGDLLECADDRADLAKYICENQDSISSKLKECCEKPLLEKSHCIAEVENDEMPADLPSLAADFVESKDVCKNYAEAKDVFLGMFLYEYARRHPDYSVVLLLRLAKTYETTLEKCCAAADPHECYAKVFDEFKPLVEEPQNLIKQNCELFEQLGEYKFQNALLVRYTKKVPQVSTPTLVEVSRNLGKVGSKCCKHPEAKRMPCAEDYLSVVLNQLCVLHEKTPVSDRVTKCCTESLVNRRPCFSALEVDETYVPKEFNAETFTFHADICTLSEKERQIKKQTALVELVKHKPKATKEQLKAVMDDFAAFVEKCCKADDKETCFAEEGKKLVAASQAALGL
In the case of `CCc1c(C)c2cc3nc(c(C(=O)OC)c4nc(cc5[nH]c(cc1[nH]2)C1(C)C5=CC=C(C(=O)OC)C1C(=O)OC)C(C)=C4C(=O)OC)[C@@H](CCC(=O)OC)[C@@H]3C` (stereo not given in full), the K was 14400000 M⁻¹.

`CCc1c(C)c2cc3nc(c4c5nc(cc6[nH]c(cc1[nH]2)C1(C)C6=CC=C(C(=O)OC)C1C(=O)OC)C(C)=C5C(=O)C4)[C@@H](CCC(=O)OC)[C@@H]3C` (stereo not given in full) displayed a K of 10600000 M⁻¹. As for `CCCCCCN1C(=O)C2=C(C)c3cc4[nH]c(cc5[nH]c(cc6nc(c(c2n3)C1=O)[C@@H](CCC(=O)OC)[C@@H]6C)c(C)c5CC)C1(C)C4=CC=C(C(=O)OC)C1C(=O)OC` (stereo not given in full), the K is 16100000 M⁻¹. Regarding `CCc1c(C)c2cc3nc(c4c5nc(cc6[nH]c(cc1[nH]2)C1(C)C6=CC=C(C(=O)OC)C1C(=O)OC)C(C)=C5C(=O)N(Cc1cc(C(F)(F)F)cc(C(F)(F)F)c1)C4=O)[C@@H](CCC(=O)OC)[C@@H]3C` (stereo not given in full), the K was found to be 16000000 M⁻¹. As for `CCc1c(C)c2cc3nc(c(CC(=O)OC)c4nc(cc5[nH]c(cc1[nH]2)C1(C)C5=CC=C(C(=O)OC)C1C(=O)OC)C(C)=C4C(=O)OC)[C@@H](CCC(=O)OC)[C@@H]3C` (stereo not given in full), the K is 17500000 M⁻¹.

Source of the values: ChEMBL document CHEMBL1145918, “Synthesis, comparative photosensitizing efficacy, human serum albumin (site II) binding ability, and intracellular localization characteristics of novel benzobacteriochlorins derived from vic-dihydroxybacteriochlorins” (J Med Chem, 2003).
